# Results taken from patent US8106055B2, “Substituted amide compounds” (Gruenenthal GmbH, priority 2007, dated 2012).
# Biological target: T1, human μ opiate receptor (Homo sapiens, UniProt P35372)
# T1 construct: purchased PerkinElmer Life Sciences, Zaventem, Belgium RB-HOM; host or cells: CHO-K1 cells (membrane preparation)
# Assay: Affinity for the human μ opiate receptor ([3H]-naloxone displacement, CHO-K1 receptor membrane preparation, SPA)
# Type: binding
# Details: test concentration of 1 μM; read-out: μ (binding on the μ opioid receptor, % inhibition)
# Procedure, shortened: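 Membranes from CHO-K1 cells expressing the human μ opiate receptor (15-40 μg protein per well) were incubated with test compound, 1 nmol/l [3H]-naloxone and WGA-SPA beads in 50 mmol/l Tris-HCl with 0.06% BSA for 90 minutes at room temperature. Values are % inhibition of specific binding at 1 μmol/l.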
# T1 sequence (P35372 whole entry): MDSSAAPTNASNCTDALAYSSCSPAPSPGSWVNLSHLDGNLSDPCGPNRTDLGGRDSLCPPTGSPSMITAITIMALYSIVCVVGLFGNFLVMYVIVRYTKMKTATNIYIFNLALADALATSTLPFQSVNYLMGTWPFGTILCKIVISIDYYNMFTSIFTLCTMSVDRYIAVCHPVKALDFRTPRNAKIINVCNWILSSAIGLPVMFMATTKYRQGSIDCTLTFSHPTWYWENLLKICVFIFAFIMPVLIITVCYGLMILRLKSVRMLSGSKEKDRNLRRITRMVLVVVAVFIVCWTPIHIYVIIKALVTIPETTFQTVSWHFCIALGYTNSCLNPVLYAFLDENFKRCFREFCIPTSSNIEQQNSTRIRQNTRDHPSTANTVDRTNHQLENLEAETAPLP
row,SMILES,inhibition at 1 µM [%]
1,"COc1cc(C)c(S(=O)(=O)N2CCC(OCC(=O)NC3CCC(C(c4cccs4)N(C)C)CC3)CC2)c(C)c1C (stereo not shown) [Example 1, N-(4-((dimethylamino)(thiophen-2-yl)methyl)cyclohexyl)-2-(1-(4-methoxy-2,3,6-trimethylphenylsulfonyl)piperidin-4-yloxy)acetamide]",100
2,"Cc1ccc(S(=O)(=O)N(C)CCOCC(=O)NCC2CCC(C(c3cccs3)N(C)C)CC2)cc1 (stereo not shown) [Example 4, N-((4-((dimethylamino)(thiophen-2-yl)methyl)cyclohexyl)methyl)-2-(2-(N,4-dimethylphenylsulfonamido)ethoxy)acetamide]",99
3,"COc1cc(C)c(S(=O)(=O)N2CCC(CCOCC(=O)NC3CCC(C(c4cccs4)N(C)C)CC3)CC2)c(C)c1C (stereo not shown) [Example 5, N-(4-((dimethylamino)(thiophen-2-yl)methyl)cyclohexyl)-2-(2-(1-(4-methoxy-2,3,6-trimethylphenylsulfonyl)piperidin-4-yl)ethoxy)acetamide]",99
4,"CN(C)C(c1ccccc1)C1CCC(NC(=O)COCCN(C)S(=O)(=O)c2c(Cl)cc(Cl)cc2Cl)CC1 (stereo not shown) [Example 34, N-(4-((dimethylamino)(phenyl)methyl)cyclohexyl)-2-(2-(2,4,6-trichloro-N-methylphenylsulfonamido)ethoxy)acetamide]",96
5,"COc1cc(C)c(S(=O)(=O)N(C)CCOCC(=O)NCC2CCC(C(c3cccs3)N(C)C)CC2)c(C)c1C (stereo not shown) [Example 35, N-((4-((dimethylamino)(thiophen-2-yl)methyl)cyclohexyl)methyl)-2-(2-(4-methoxy-N,2,3,6-tetramethylphenylsulfonamido)ethoxy)acetamide]",96
6,"CN(C)C(c1cccs1)C1CCC(CNC(=O)COC2CCN(S(=O)(=O)c3ccccc3)C2)CC1 (stereo not shown) [Example 36, N-((4-((dimethylamino)(thiophen-2-yl)methyl)cyclohexyl)methyl)-2-(1-(phenylsulfonyl)pyrrolidin-3-yloxy)acetamide]",96
7,"CN(C)C(c1cccs1)C1CCC(CCNC(=O)COCCN(C)S(=O)(=O)c2ccc(Cl)cc2)CC1 (stereo not shown) [Example 37, 2-(2-(4-chloro-N-methylphenylsulfonamido)ethoxy)-N-(2-(4-((dimethylamino)(thiophen-2-yl)methyl)cyclohexyl)ethyl)acetamide]",96
8,"COc1ccc(S(=O)(=O)N2Cc3ccccc3CC2COCC(=O)NC2CCC(C(c3ccccc3)N(C)C)CC2)cc1 (stereo not shown) [Example 38, N-(4-((dimethylamino)(phenyl)methyl)cyclohexyl)-2-((2-(4-methoxyphenylsulfonyl)-1,2,3,4-tetrahydroisoquinolin-3-yl)methoxy)acetamide]",96
9,"CN(C)C(c1ccccc1)C1CCC(NC(=O)COC2CCCCC2N(C)S(=O)(=O)c2ccc(Cl)c(Cl)c2)CC1 (stereo not shown) [Example 39, 2-(2-(3,4-dichloro-N-methylphenylsulfonamido)cyclohexyloxy)-N-(4-((dimethylamino)(phenyl)methyl)cyclohexyl)acetamide]",96
10,"CN(C)C(c1cccc(F)c1)C1CCC(CCNC(=O)COCCN(C)S(=O)(=O)c2c(Cl)cccc2Cl)CC1 (stereo not shown) [Example 41, 2-(2-(2,6-dichloro-N-methylphenylsulfonamido)ethoxy)-N-(2-(4-((dimethylamino)(3-fluorophenyl)methyl)cyclohexyl)ethyl)acetamide]",96
11,"CN(C)C(c1cccs1)C1CCC(NC(=O)COC2CCCN(S(=O)(=O)c3ccccc3)C2)CC1 (stereo not shown) [Example 42, N-(4-((dimethylamino)(thiophen-2-yl)methyl)cyclohexyl)-2-(1-(phenylsulfonyl)piperidin-3-yloxy)acetamide]",96
12,"COc1cc(C)c(S(=O)(=O)N2CCC(OCC(=O)NC3CCC(C(c4cccs4)N(C)C)CC3)C2)c(C)c1C (stereo not shown) [Example 43, N-(4-((dimethylamino)(thiophen-2-yl)methyl)cyclohexyl)-2-(1-(4-methoxy-2,3,6-trimethylphenylsulfonyl)pyrrolidin-3-yloxy)acetamide]",96
13,"COc1cc(C)c(S(=O)(=O)N2CCC(OCC(=O)NCC3CCC(C(c4ccccc4)N(C)C)CC3)C2)c(C)c1C (stereo not shown) [Example 44, N-((4-((dimethylamino)(phenyl)methyl)cyclohexyl)methyl)-2-(1-(4-methoxy-2,3,6-trimethylphenylsulfonyl)pyrrolidin-3-yloxy)acetamide]",96
14,"COc1ccc(S(=O)(=O)N2CCCCC2COCC(=O)NCC2CCC(C(c3cccs3)N(C)C)CC2)cc1 (stereo not shown) [Example 45, N-((4-((dimethylamino)(thiophen-2-yl)methyl)cyclohexyl)methyl)-2-((1-(4-methoxyphenylsulfonyl)piperidin-2-yl)methoxy)acetamide]",96
15,"COc1ccc(S(=O)(=O)N2CCCCC2CCOCC(=O)NCCC2CCC(C(c3cccs3)N(C)C)CC2)cc1 (stereo not shown) [Example 46, N-(2-(4-((dimethylamino)(thiophen-2-yl)methyl)cyclohexyl)ethyl)-2-(2-(1-(4-methoxyphenylsulfonyl)piperidin-2-yl)ethoxy)acetamide]",96
16,"COc1ccc(S(=O)(=O)N2Cc3ccccc3CC2COCC(=O)NC2CCC(C(c3cccs3)N(C)C)CC2)cc1 (stereo not shown) [Example 47, N-(4-((dimethylamino)(thiophen-2-yl)methyl)cyclohexyl)-2-((2-(4-methoxyphenylsulfonyl)-1,2,3,4-tetrahydroisoquinolin-3-yl)methoxy)acetamide]",96
17,"COc1ccc(S(=O)(=O)N2Cc3ccccc3CC2COCC(=O)NCCC2CCC(C(c3cccs3)N(C)C)CC2)cc1 (stereo not shown) [Example 48, N-(2-(4-((dimethylamino)(thiophen-2-yl)methyl)cyclohexyl)ethyl)-2-((2-(4-methoxyphenylsulfonyl)-1,2,3,4-tetrahydroisoquinolin-3-yl)methoxy)acetamide]",96
18,"COc1ccc(S(=O)(=O)N2CCCCC2COCC(=O)NCC2CCC(C(c3cccs3)N(C)C)CC2)c(OC)c1 (stereo not shown) [Example 49, 2-((1-(2,4-dimethoxyphenylsulfonyl)piperidin-2-yl)methoxy)-N-((4-((dimethylamino)(thiophen-2-yl)methyl)cyclohexyl)methyl)acetamide]",96
19,"COc1cc(C)c(S(=O)(=O)N(C)CCOCC(=O)NCCC2CCC(C(c3cccs3)N(C)C)CC2)c(C)c1C (stereo not shown) [Example 52, N-(2-(4-((dimethylamino)(thiophen-2-yl)methyl)cyclohexyl)ethyl)-2-(2-(4-methoxy-N,2,3,6-tetramethylphenylsulfonamido)ethoxy)acetamide]",95
20,"CN(C)C(c1ccccc1)C1CCC(CNC(=O)COCCN(C)S(=O)(=O)c2ccc(OC(F)(F)F)cc2)CC1 (stereo not shown) [Example 53, N-((4-((dimethylamino)(phenyl)methyl)cyclohexyl)methyl)-2-(2-(N-methyl-4-(trifluoromethoxy)phenylsulfonamido)ethoxy)acetamide]",95
21,"CN(C)C(c1cccs1)C1CCC(CNC(=O)COC2CCN(S(=O)(=O)c3ccc(Cl)cc3)C2)CC1 (stereo not shown) [Example 54, 2-(1-(4-chlorophenylsulfonyl)pyrrolidin-3-yloxy)-N-((4-((dimethylamino)(thiophen-2-yl)methyl)cyclohexyl)methyl)acetamide]",95
22,"CN(C)C(c1cccs1)C1CCC(CNC(=O)COCCN(C)S(=O)(=O)c2ccc(Cl)cc2)CC1 (stereo not shown) [Example 55, 2-(2-(4-chloro-N-methylphenylsulfonamido)ethoxy)-N-((4-((dimethylamino)(thiophen-2-yl)methyl)cyclohexyl)methyl)acetamide]",95
23,"CN(C)C(c1cccs1)C1CCC(CNC(=O)COCCN(C)S(=O)(=O)c2ccc(F)cc2)CC1 (stereo not shown) [Example 56, N-((4-((dimethylamino)(thiophen-2-yl)methyl)cyclohexyl)methyl)-2-(2-(4-fluoro-N-methylphenylsulfonamido)ethoxy)acetamide]",95
24,"Cc1cc(C)c(S(=O)(=O)N(C)CCOCC(=O)NCC2CCC(C(c3cccs3)N(C)C)CC2)c(C)c1 (stereo not shown) [Example 57, N-((4-((dimethylamino)(thiophen-2-yl)methyl)cyclohexyl)methyl)-2-(2-(N,2,4,6-tetramethylphenylsulfonamido)ethoxy)acetamide]",95
25,"COc1cc(C)c(S(=O)(=O)N2CCC(OCC(=O)NCC3CCC(C(c4cccs4)N(C)C)CC3)C2)c(C)c1C (stereo not shown) [Example 58, N-((4-((dimethylamino)(thiophen-2-yl)methyl)cyclohexyl)methyl)-2-(1-(4-methoxy-2,3,6-trimethylphenylsulfonyl)pyrrolidin-3-yloxy)acetamide]",95
26,"CCN(CCOCC(=O)NC1CCC(C(c2cccs2)N(C)C)CC1)S(=O)(=O)c1c(C)cc(OC)c(C)c1C (stereo not shown) [Example 59, N-(4-((dimethylamino)(thiophen-2-yl)methyl)cyclohexyl)-2-(2-(N-ethyl-4-methoxy-2,3,6-trimethylphenylsulfonamido)ethoxy)acetamide]",95
27,"COc1cc(C)c(S(=O)(=O)N2CCCC(OCC(=O)NCC3CCC(C(c4cccs4)N(C)C)CC3)C2)c(C)c1C (stereo not shown) [Example 60, N-((4-((dimethylamino)(thiophen-2-yl)methyl)cyclohexyl)methyl)-2-(1-(4-methoxy-2,3,6-trimethylphenylsulfonyl)piperidin-3-yloxy)acetamide]",95
28,"COc1cc(C)c(S(=O)(=O)N2CCN(CCOCC(=O)NCC3CCC(C(c4ccccc4)N(C)C)CC3)CC2)c(C)c1C (stereo not shown) [Example 61, N-((4-((dimethylamino)(phenyl)methyl)cyclohexyl)methyl)-2-(2-(4-(4-methoxy-2,3,6-trimethylphenylsulfonyl)piperazin-1-yl)ethoxy)acetamide]",95
